Measured values from US20240174692A1, “PYRIMIDINE AROMATIC RING COMPOUNDS” (Medshine Discovery Inc., priority 2021, published 2024).

Assays:
plasma protein [1] = assay: Plasma protein binding (PPB), equilibrium dialysis, D plasma; format: in vitro ADME, dog; settings: 2 μM, 4 hr dialysis
Procedure: (§1) Assay procedure: 995 μL of blank plasma of various genera were weighed, and 5 μL of assay compound working solution (400 μM) or warfarin working solution (400 μM) was added so that the final concentrations of the assay compound and warfarin in plasma sample were each 2 μM. The samples were mixed thoroughly. The final concentration of DMSO (the organic phase) was 0.5%. 50 μL of the plasma samples of the assay compound and warfarin were pipetted to a sample receiving plate (in triplicate), and the corresponding volume of corresponding blank plasma or buffer was added immediately, so that the final volume in each sample well was 100 μL, wherein the volume ratio of plasma:dialysis buffer was 1:1. 500 μL of stop solution was then added to these samples. These samples were used as T0 samples for determination of recovery and stability. […] All samples were subjected to protein precipitation, and then analyzed by LC/MS/MS. Bound rate and recovery rate of protein were calculated using the following formulae: % Unbound=100*F/T % Bound=100−% Unbound, % Recovery=100*(F+T)/T0 (wherein F is the peak area ratio of the compound in the dialysate after 4 h of dialysis; T is the peak area ratio of the compound in the plasma after 4 h of dialysis; T0 is the peak area ratio of the compound in the plasma sample at time zero).

plasma protein [2] = assay: Plasma protein binding (PPB), equilibrium dialysis, C plasma; format: in vitro ADME, monkey; settings: 2 μM, 4 hr dialysis
Procedure: as §1

[3] = Pharmacokinetic evaluation of compounds in mice; format: in vivo, CD-1 mice; settings: CD-1 male mice
Procedure: Purpose of assay: To assay the pharmacokinetic data of the compounds in CD-1 mice in vivo.
Compounds were mixed with vehicle 5% DMSO/95% (10% HP-β-CD aqueous solution), and the mixture was vortexed and sonicated to give 0.2 mg/mL-0.3 mg/mL clear solutions. CD-1 male mice aged 7 to 10 weeks were selected, and the candidate compound solution was administered intravenously. Whole blood was collected for a certain period of time to prepare the plasma. The drug concentration was analyzed by LC-MS/MS method and pharmacokinetic parameters were calculated by Phoenix WinNonlin software (Pharsight, USA).
Compounds were mixed with vehicle 5% DMSO/95% (10% HP-β-CD in water), and the mixture was vortexed and sonicated to give 1.6 mg/mL to 4.0 mg/mL clear solutions. CD-1 male mice aged 7 to 10 weeks were selected, and the candidate compound solution was orally administered. Whole blood was collected for a certain period of time to prepare plasma. The drug concentration was analyzed by LC-MS/MS method, and pharmacokinetic parameters were calculated by Phoenix WinNonlin software (Pharsight, USA).

[4] = Pharmacokinetic evaluation of compounds in rats; format: in vivo; settings: rat, plasma, SD rats
Procedure: Purpose of assay: To assay the pharmacokinetic data of the compounds in SD rats in vivo.
Compounds were mixed with vehicle 5% DMSO/95% (10% HP-β-CD in water), and the mixture was vortexed and sonicated to give a clear solution of 0.3 mg/mL. The candidate compound solutions were administered intravenously. Whole blood was collected for a certain period of time to prepare plasma. The drug concentration was analyzed by LC-MS/MS method, and pharmacokinetic parameters were calculated.
Compounds were mixed with vehicle 5% DMSO/95% (10% HP-β-CD in water), and the mixture was vortexed and sonicated to give a solution of 7 mg/mL. The candidate compound solutions were administered orally. Whole blood was collected for a certain period of time to prepare plasma. The drug concentration was analyzed by LC-MS/MS method, and pharmacokinetic parameters were calculated.

[5] = Pharmacokinetic evaluation of compounds in dogs; format: in vivo; settings: dog, plasma, Beagle dogs
Procedure: Purpose of assay: To assay the pharmacokinetic data of the compounds in Beagle dogs in vivo.
Compound 014 was mixed with vehicle 20% DMSO/60% PEG400/20% (10% HP-β-CD in water), and the mixture was vortexed and sonicated to give a clear solution of 4 mg/mL. The candidate compound solutions were administered intravenously. Whole blood was collected for a certain period of time to prepare plasma. The drug concentration was analyzed by LC-MS/MS method, and pharmacokinetic parameters were calculated.
Compound 014 was mixed (15 mg/mL) with vehicle 20% DMSO/60% PEG400/20% (10% HP-β-CD in water), and the mixture was vortexed and sonicated to give solutions of 6 mg/mL to 15 mg/mL. The candidate compound solutions were administered orally. Whole blood was collected for a certain period of time to prepare plasma. The drug concentration was analyzed by LC-MS/MS method, and pharmacokinetic parameters were calculated.

## C#Cc1c(F)ccc2cc(N)cc(-c3ccc4c(N5CC6CCC(C5)N6)nc(OC[C@@]56CCCN5C[C@H](F)C6)nc4c3F)c12 [Compound 014]
Plasma protein [1]
  Unbound PPB D: 3.0%
Plasma protein [2]
  Unbound PPB C: 2.8%
[3]; PO, 16.0 mg/kg, AUCu = AUC0-inf *Unbound PPB (Mouse)
  AUCu: 0.0671 µM·h
[3]; mouse, plasma, IV, 1.28 mg/kg
  AUC(0-inf): 0.565 µM·h
  C0: 953 nM
  Vd: 25.6 L/kg
  clearance: 77 mL/min/kg
  half-life: 5.7 h
[3]; mouse, plasma, PO, 16.0 mg/kg
  AUC(0-inf): 1.49 µM·h
  Cmax: 524 nM
  bioavailability: 20.5%
  half-life: 6 h
[4]; IV, 1.56 mg/kg
  AUC(0-inf): 0.15 µM·h
  C0: 971 nM
  Vd: 5.89 L/kg
  clearance: 271 mL/min/kg
  half-life: 0.56 h
[4]; PO, 31.7 mg/kg
  AUC(0-inf): 0.427 µM·h
  Cmax: 182 nM
  bioavailability: 12.5%
  half-life: 6.8 h
[5]; IV, 1.56 mg/kg
  AUC(0-inf): 0.15 µM·h
  C0: 971 nM
  Vd: 5.89 L/kg
  clearance: 271 mL/min/kg
  half-life: 0.56 h
[5]; PO, 32.1 mg/kg
  AUC(0-inf): 0.969 µM·h
  Cmax: 439 nM
  bioavailability: 16.9%
  half-life: 10.8 h
